According to patent publication US20230114728A1 (Venatorx Pharmaceuticals, Inc., priority 2019, published 2023):
≈ marks a conversion by molar mass, not a printed value. Where two headings read alike, the source gives them in different places.

What was measured:
Assay in all cases: Broth microdilution MIC in CAMHB
Assay type in all cases: cell-based
[1] = test system: A. baumannii ATCC 19606; conditions: Acinetobacter baumannii
Summary of the method: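 Per CLSI broth microdilution, colonies were grown 3-5 h at 37° C in cation-adjusted Mueller Hinton broth, then diluted to a starting inoculum of 2-8×10^5 CFU/mL against 2-fold serial compound dilutions. Plates were incubated 16-20 h at 37° C, and MIC was read visually as the lowest concentration with no growth.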

[2] = test system: E. coli 901C; conditions: Escherichia coli, read-out: Minimum Inhibitory Concentration, E. coli 901C
Summary of the method: (§1)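 CLSI microdilution; CAMHB; inoculum 2-8×10^5 CFU/mL from 3-5 h 37° C culture; 2-fold compound series; 16-20 h, 37° C; MIC = lowest well without visible growth.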

[3] = test system: E. coli AG100A; conditions: Escherichia coli, read-out: Minimum Inhibitory Concentration, E. coli AG100A
Summary of the method: as §1

[4] = test system: E. coli AG100; conditions: Escherichia coli
Summary of the method: as §1

[5] = test system: E. coli ATCC 25922; conditions: Escherichia coli
Summary of the method: as §1

[6] = test system: E. coli D22; conditions: Escherichia coli
Summary of the method: as §1

[7] = test system: K. pneumoniae 848844 producing SHV-11 and KPC-2; conditions: Klebsiella pneumoniae, read-out: Minimum Inhibitory Concentration, K. pneumoniae 848844
Summary of the method: as §1

[8] = test system: K. pneumoniae SI-117 producing VIM-1; conditions: Klebsiella pneumoniae, read-out: Minimum Inhibitory Concentration, K. pneumoniae SI-117
Summary of the method: as §1

[9] = test system: K. pneumoniae UMM producing SHV-5 and KPC-2; conditions: Klebsiella pneumoniae, read-out: Minimum Inhibitory Concentration, K. pneumoniae UMM
Summary of the method: as §1

[10] = test system: P. aeruginosa (ΔmexAB-oprM); conditions: Pseudomonas aeruginosa, read-out: Minimum Inhibitory Concentration, P. aeruginosa ΔmexAB-OprM
Summary of the method: as §1

[11] = test system: P. aeruginosa ATCC 27853; conditions: Pseudomonas aeruginosa
Summary of the method: as §1

[12] = test system: P. aeruginosa ATCC 35151; conditions: Pseudomonas aeruginosa
Summary of the method: as §1

[13] = ATCC19606, MHB, read-out: Minimum Inhibitory Concentration, A. baumannii ATCC 19606
[14] = E. coli 901C (hyper-permeable), MHB
[15] = E. coli AG100 (wild-type parent), MHB, read-out: Minimum Inhibitory Concentration, E. coli AG100
[16] = ATCC25922, E. coli ATCC 25922, MHB, read-out: Minimum Inhibitory Concentration, E. coli 25922
[17] = E. coli D22 (hyper-permeable), MHB, read-out: Minimum Inhibitory Concentration, E. coli D22
[18] = ATCC27853, MHB, read-out: Minimum Inhibitory Concentration, P. aeruginosa ATCC 27853
[19] = ATCC35151, MHB, hyper-permeable strain, read-out: Minimum Inhibitory Concentration, P. aeruginosa ATCC 35151

| SMILES | MIC ([1]; ATCC19606, read-out: Minimum Inhibitory Concentration, A. baumannii ATCC 19606) [µg/mL] | MIC ([2]; 901C) [µg/mL] | MIC [3] [µg/mL] | MIC ([4]; AG100, read-out: Minimum Inhibitory Concentration, E. coli AG100) [µg/mL] | MIC ([5]; ATCC25922, read-out: Minimum Inhibitory Concentration, E. coli 25922) [µg/mL] | MIC ([6]; D22, read-out: Minimum Inhibitory Concentration, E. coli D22) [µg/mL] | MIC [7] [µg/mL] | MIC [8] [µg/mL] | MIC [9] [µg/mL] | MIC [10] [µg/mL] | MIC ([11]; ATCC27853, read-out: Minimum Inhibitory Concentration, P. aeruginosa ATCC 27853) [µg/mL] | MIC ([12]; ATCC35151, read-out: Minimum Inhibitory Concentration, P. aeruginosa ATCC 35151) [µg/mL] | MIC [1, 13] [µg/mL] | MIC [2, 14] [µg/mL] | MIC [4, 15] [µg/mL] | MIC [5, 16] [µg/mL] | MIC [6, 17] [µg/mL] | MIC [11, 18] [µg/mL] | MIC [12, 19] [µg/mL] |
| --- | --- | --- | --- | --- | --- | --- | --- | --- | --- | --- | --- | --- | --- | --- | --- | --- | --- | --- | --- |
| N[C@@H](C(=O)N[C@H]1Cc2ccc(F)c(C(=O)O)c2OB1O)c1ccc(OS(=O)(=O)F)cc1 [Example 32, (R)-3-((R)-2-amino-2-(4-((fluorosulfonyl)oxy)phenyl)acetamido)-7-fluoro-2-hydroxy-3,4-dihydro-2H-benzo[e][1,2]oxaborinine-8-carboxylic acid] | > 128 | > 128 | > 128 | > 128 | > 128 | > 128 | > 128 | > 128 | > 128 | > 128 | > 128 | > 128 | – | – | – | – | – | – | – |
| CCN1CCN(C(=O)NC(C(=O)N[C@H]2Cc3cccc(C(=O)O)c3OB2O)c2ccc(O)c(N)c2)C(=O)C1=O (stereo partly drawn) [Example 29, (3R)-3-(2-(3-amino-4-hydroxyphenyl)-2-(4-ethyl-2,3-dioxopiperazine-1-carboxamido)acetamido)-2-hydroxy-3,4-dihydro-2H-benzo[e][1,2]oxaborinine-8-carboxylic acid] | – | – | 2 to 4 (≈ 3.71 to 7.42 µM) | – | – | – | > 128 | 32 to 64 (≈ 59.3 to 119 µM) | 32 to 64 (≈ 59.3 to 119 µM) | 8 to 16 (≈ 14.8 to 29.7 µM) | – | – | > 128 | 0.5 to 1 (≈ 0.927 to 1.85 µM) | 32 to 64 (≈ 59.3 to 119 µM) | 32 to 64 (≈ 59.3 to 119 µM) | 2 to 4 (≈ 3.71 to 7.42 µM) | > 128 | 0.5 to 1 (≈ 0.927 to 1.85 µM) |
| CCN1CCN(C(=O)N[C@H](C(=O)N[C@H]2Cc3cccc(C(=O)O)c3OB2O)c2nc(Cl)c(C(=O)O)cc2F)C(=O)C1=O [Example 19, 6-((S)-2-(((R)-8-carboxy-2-hydroxy-3,4-dihydro-2H-benzo[e][1,2]oxaborinin-3-yl)amino)-1-(4-ethyl-2,3-dioxopiperazine-1-carboxamido)-2-oxoethyl)-2-chloro-5-fluoronicotinic acid] | – | – | 32 to 64 (≈ 52.8 to 106 µM) | – | – | – | > 128 | > 128 | > 128 | 32 to 64 (≈ 52.8 to 106 µM) | – | – | > 128 | 0.5 to 1 (≈ 0.825 to 1.65 µM) | > 128 | > 128 | 2 to 4 (≈ 3.3 to 6.6 µM) | > 128 | 0.5 to 1 (≈ 0.825 to 1.65 µM) |
| NCCCN1CCN(C(=O)NC(C(=O)N[C@H]2Cc3cccc(C(=O)O)c3OB2O)c2ccc(C(=O)O)cc2)C(=O)C1=O (stereo partly drawn) [Example 39, (3R)-3-(2-(4-(3-aminopropyl)-2,3-dioxopiperazine-1-carboxamido)-2-(4-carboxyphenyl)acetamido)-2-hydroxy-3,4-dihydro-2H-benzo[e][1,2]oxaborinine-8-carboxylic acid] | – | – | 8 to 16 (≈ 13.8 to 27.5 µM) | – | – | – | > 128 | > 128 | 32 to 64 (≈ 55 to 110 µM) | 8 to 16 (≈ 13.8 to 27.5 µM) | – | – | > 128 | 0.5 to 1 (≈ 0.86 to 1.72 µM) | 8 to 16 (≈ 13.8 to 27.5 µM) | 8 to 16 (≈ 13.8 to 27.5 µM) | 2 to 4 (≈ 3.44 to 6.88 µM) | 8 to 16 (≈ 13.8 to 27.5 µM) | < 0.25 |
| CCN1CCN(C(=O)NC(C(=O)N[C@H]2Cc3cccc(C(=O)O)c3OB2O)c2ccc(O)c(N(S(C)(=O)=O)S(C)(=O)=O)c2)C(=O)C1=O (stereo partly drawn) [Example 21, (3R)-3-(2-(4-ethyl-2,3-dioxopiperazine-1-carboxamido)-2-(4-hydroxy-3-(N-(methylsulfonyl)methylsulfonamido)phenyl)acetamido)-2-hydroxy-3,4-dihydro-2H-benzo[e][1,2]oxaborinine-8-carboxylic acid] | – | – | 2 to 4 (≈ 2.88 to 5.75 µM) | – | – | – | > 128 | > 128 | 32 to 64 (≈ 46 to 92 µM) | 32 to 64 (≈ 46 to 92 µM) | – | – | > 128 | < 0.25 | 32 to 64 (≈ 46 to 92 µM) | > 128 | 2 to 4 (≈ 2.88 to 5.75 µM) | > 128 | 2 to 4 (≈ 2.88 to 5.75 µM) |
